The text below walks through data of PubChem BioAssay (NCI).

Among the test systems are BT-549 breast; CAKI-1 renal; IGROV1 ovarian; NCI-H23 lung; SF-268 CNS; SF-539 CNS; SK-MEL-28 melanoma; SK-MEL-5 melanoma; T-47D breast; UACC-62 melanoma.
What all share (experiment): NCI tumour cell line growth inhibition, 48 h

Each structure is given as a SMILES string. Where “and” joins values, the source holds several entries; their conditions need not be identical. Identical values can stand only once.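 The compound was tested at five concentrations on cells cultured in 96-well plates, with a 48-hour exposure period. GI50 = concentration required for 50% inhibition of growth. TGI: concentration producing complete growth inhibition.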

For the compound `O=C1C(=O)c2ccccc2C(O)=C1CC=C(Cl)Cl`, the GI50 in the assay on BT-549 breast is 16.3 µM and 27.1 µM; in the assay on CAKI-1 renal it was 7.47 µM and 7.14 µM; in the assay with IGROV1 ovarian, 4.93 µM and 8.27 µM; with NCI-H23 lung, 11.6 µM and 12.7 µM; in the assay with SF-268 CNS, 9.02 µM and 7.72 µM; with SF-539 CNS, 2.45 µM and 3.72 µM. Further, the GI50 in the assay on SK-MEL-28 melanoma was 9.5 µM and 16.4 µM; in the assay on SK-MEL-5 melanoma, 3.54 µM; with T-47D breast it was 11 µM and 20.1 µM; in the assay on UACC-62 melanoma it was 6.1 µM and 8.42 µM. In addition, the TGI with BT-549 breast was 94.6 µM and 139 µM and > 100 µM; with CAKI-1 renal, 65.6 µM and 136 µM and > 100 µM; in the assay with IGROV1 ovarian, 119 µM and > 100 µM; in the assay on NCI-H23 lung it was 51.3 µM and 154 µM and 99.1 µM; in the assay on SF-268 CNS, 202 µM and > 100 µM; in the assay with SF-539 CNS it was 54.3 µM and 107 µM and > 100 µM. The TGI is 60.4 µM and 161 µM and > 100 µM in the assay with SK-MEL-28 melanoma; 22.6 µM and 43 µM and 21.6 µM in the assay on SK-MEL-5 melanoma; 49.3 µM and 213 µM and > 100 µM in the assay with T-47D breast; 40 µM and 81.7 µM and > 100 µM in the assay on UACC-62 melanoma.
`CNC(=O)OC1C(O[C@H]2C[C@H]3[C@@H]4CC=C5C[C@@H](O)CC[C@]5(C)[C@H]4CC[C@]3(C)[C@H]2[C@H](C)C(=O)CCC(C)C)OCC(O)C1OC1OCC(O)C(O)C1OC(=O)c1ccc(OC)cc1` (stereo partly drawn): the GI50 with BT-549 breast is less than 0.00275 µM; with CAKI-1 renal, 0.0676 µM; in the assay on IGROV1 ovarian, 0.0224 µM; in the assay on NCI-H23 lung it was 0.134 µM; in the assay on SF-268 CNS, 0.0226 µM; in the assay with SF-539 CNS, less than 0.00275 µM. The GI50 was 0.0123 µM in the assay on SK-MEL-28 melanoma, 0.026 µM in the assay on SK-MEL-5 melanoma, 0.035 µM with T-47D breast and 0.00688 µM in the assay on UACC-62 melanoma. The TGI worked out at 3.49 µM in the assay with BT-549 breast; 1.04 µM in the assay on CAKI-1 renal; 3.95 µM in the assay with IGROV1 ovarian; 4.59 µM with NCI-H23 lung; 2.78 µM in the assay on SF-268 CNS; 0.0185 µM with SF-539 CNS. For the same compound, the TGI with SK-MEL-28 melanoma is 0.0754 µM; with SK-MEL-5 melanoma, 0.317 µM; in the assay with T-47D breast, 3.69 µM; in the assay with UACC-62 melanoma, 0.0188 µM.
Take `Oc1c(I)cc(-c2nc3ccccc3s2)cc1CN(Cc1ccccn1)Cc1ccccn1`: the GI50 in the assay with BT-549 breast was 0.394 µM; in the assay on CAKI-1 renal it was 0.413 µM; in the assay on IGROV1 ovarian, 0.517 µM; in the assay with NCI-H23 lung, 0.866 µM; in the assay on SF-268 CNS, 0.301 µM; in the assay with SF-539 CNS, 0.246 µM. The GI50 with SK-MEL-28 melanoma is 0.411 µM; with SK-MEL-5 melanoma, 0.179 µM; in the assay with T-47D breast it was 0.666 µM; with UACC-62 melanoma it was 0.207 µM. The TGI was 29.8 µM with BT-549 breast; 2.47 µM with CAKI-1 renal; 9.06 µM with IGROV1 ovarian; greater than 100 µM with NCI-H23 lung; 95.2 µM with SF-268 CNS; 0.903 µM in the assay on SF-539 CNS. Further, the TGI with SK-MEL-28 melanoma was determined as 43 µM; with SK-MEL-5 melanoma, 0.438 µM; in the assay with T-47D breast it was 83.3 µM; in the assay on UACC-62 melanoma, 0.563 µM.
Regarding `O=C(Nc1cccc(O)c1)c1cccc(NC2=C(Cl)C(=O)N(Cc3ccccc3)C2=O)c1`, the GI50 is 0.396 µM with BT-549 breast; 0.318 µM in the assay with CAKI-1 renal; 1.19 µM in the assay on IGROV1 ovarian; 20.6 µM in the assay with NCI-H23 lung; 21.8 µM with SF-268 CNS; 3.57 µM in the assay with SF-539 CNS. The GI50 in the assay on SK-MEL-28 melanoma was 16.9 µM; with SK-MEL-5 melanoma, 6.09 µM; in the assay with T-47D breast, 23.5 µM; in the assay with UACC-62 melanoma, 14.6 µM. Also, the TGI came out at 2.05 µM in the assay on BT-549 breast; 0.806 µM in the assay with CAKI-1 renal; 6.11 µM with IGROV1 ovarian; 35.8 µM in the assay on NCI-H23 lung; 54.2 µM in the assay on SF-268 CNS; 15.6 µM in the assay on SF-539 CNS. Besides, the TGI was found to be 36.3 µM in the assay on SK-MEL-28 melanoma, 20.1 µM in the assay on SK-MEL-5 melanoma, 60.5 µM in the assay on T-47D breast and 28.1 µM with UACC-62 melanoma.
For the compound `NC(=S)N/N=C\c1nccc2c(N)cccc12`, the GI50 with BT-549 breast is 0.836 µM; in the assay on CAKI-1 renal, 0.243 µM; in the assay on IGROV1 ovarian, 0.219 µM; in the assay on NCI-H23 lung, 0.224 µM; in the assay on SF-268 CNS, 0.242 µM; in the assay with SF-539 CNS, 0.146 µM. For the same compound, the GI50 was 1.16 µM with SK-MEL-28 melanoma, 0.324 µM with SK-MEL-5 melanoma, 0.454 µM in the assay with T-47D breast and 0.264 µM in the assay on UACC-62 melanoma. The TGI with BT-549 breast is greater than 100 µM; in the assay on CAKI-1 renal it was 1.01 µM; in the assay with NCI-H23 lung, greater than 94.8 µM; with SF-539 CNS, 0.757 µM; with SK-MEL-28 melanoma it was greater than 100 µM; with SK-MEL-5 melanoma, 4.01 µM. The TGI with T-47D breast is greater than 100 µM; with UACC-62 melanoma, 1.94 µM.
Regarding `O=S(=O)(NCCNc1cc(-c2cn(-c3ccccc3)nc2-c2cccc(O)c2)ccn1)c1ccc(Cl)cc1`, the GI50 in the assay on BT-549 breast was 2.06 µM; in the assay on CAKI-1 renal, 4.46 µM; with IGROV1 ovarian it was 3.82 µM; in the assay on NCI-H23 lung, 3.07 µM; in the assay with SF-268 CNS it was 2.51 µM; in the assay on SF-539 CNS, 2.08 µM. The GI50 was 2.2 µM in the assay on SK-MEL-28 melanoma, 2.02 µM in the assay with SK-MEL-5 melanoma, 2.16 µM in the assay with T-47D breast and 2.08 µM with UACC-62 melanoma. The TGI in the assay with BT-549 breast is 7.65 µM; with CAKI-1 renal it was greater than 100 µM; in the assay on IGROV1 ovarian, 24.2 µM; with NCI-H23 lung, 13.4 µM; with SF-268 CNS it was 8.94 µM; with SF-539 CNS it was 5.3 µM. Besides, the TGI with SK-MEL-28 melanoma worked out at 5.42 µM; in the assay with SK-MEL-5 melanoma it was 4 µM; in the assay on T-47D breast it was 7.74 µM; with UACC-62 melanoma, 5.08 µM.
On to `O=S(=O)(O)/C(=C\c1ccccc1)c1ccccc1` (tested in a mixture with another compound), for which the TGI with BT-549 breast, in the assay with CAKI-1 renal, in the assay with IGROV1 ovarian, in the assay with NCI-H23 lung, in the assay with SF-268 CNS and in the assay with SF-539 CNS was greater than 100 µM in each case. For the same compound, the TGI with SK-MEL-28 melanoma, in the assay on SK-MEL-5 melanoma, in the assay with T-47D breast and in the assay with UACC-62 melanoma was greater than 100 µM in each case.
On to `C/C1=C\C/C=C(\C)[C@H]2CC(CC/C(C)=C/CC1)[C@](C)(C=O)O2`, for which the GI50 was 20.9 µM in the assay on BT-549 breast; 36.4 µM in the assay with CAKI-1 renal; 18.2 µM with IGROV1 ovarian; greater than 100 µM with NCI-H23 lung; greater than 100 µM in the assay on SF-268 CNS; greater than 100 µM in the assay on SF-539 CNS. In addition, the GI50 was greater than 100 µM with SK-MEL-28 melanoma, 77.1 µM in the assay with SK-MEL-5 melanoma, greater than 100 µM in the assay with T-47D breast and greater than 100 µM in the assay on UACC-62 melanoma. Also, the TGI was greater than 100 µM in the assay on BT-549 breast; 99.2 µM with CAKI-1 renal; greater than 100 µM in the assay with IGROV1 ovarian; greater than 100 µM with NCI-H23 lung; greater than 100 µM in the assay on SF-268 CNS; greater than 100 µM in the assay with SF-539 CNS. Moreover, the TGI in the assay on SK-MEL-28 melanoma, with SK-MEL-5 melanoma, in the assay on T-47D breast and with UACC-62 melanoma was greater than 100 µM each time.
